Results from paper PMC3038857, “Using Nuclear Receptor Activity to Stratify Hepatocarcinogens” (PLoS ONE, 2011).

How the values were obtained:
PXR Human (NR1I2) = target: T1, PXR Human (NR1I2) (Homo sapiens, UniProt O75469); assay: NCGC_PXR_Agonist_human: GAL4 BLAM Reporter gene assay: PXR Human; format: cell-based; conditions: agonist mode; scale not given, looks like -log10 of molar active concentration; 0 = no activity
T1 sequence (O75469 146-434 limits assumed): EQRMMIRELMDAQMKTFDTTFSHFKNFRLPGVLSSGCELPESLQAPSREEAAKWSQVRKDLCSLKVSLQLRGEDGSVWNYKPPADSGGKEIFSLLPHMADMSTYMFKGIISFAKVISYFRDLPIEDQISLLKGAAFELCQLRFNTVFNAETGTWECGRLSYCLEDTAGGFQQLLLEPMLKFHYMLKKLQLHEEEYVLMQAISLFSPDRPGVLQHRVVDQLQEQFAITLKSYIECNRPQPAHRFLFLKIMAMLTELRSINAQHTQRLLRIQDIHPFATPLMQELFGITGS
Method in brief: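 Tox21 cell-based screens at NCGC using GAL4-fused receptor beta-lactamase reporters. Responses active only at the top concentration (above 50%) were discarded, and fits needed R^2 of at least 0.5.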

Rat Liver = conditions: rat chronic study, liver, any lesion; coded 6 / 0, code not explained here; ref ToxRefDB; cited from earlier work
ABCB11 = assay: CLZD_ABCB11: Change in expression of ABCB11 (primary human hepatocytes); format: cell-based; conditions: 24 hr, scale not given, looks like -log10 of molar active concentration, 0 = no activity
Method in brief: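 Cultured primary human hepatocytes treated with chemicals for 6, 24 or 48 hr across five concentrations spanning 0.004-40 µM, then transcript level measured by quantitative nuclease protection in a multiplexed format.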

CYP1A1 = assay: CLZD_CYP1A1: Change in expression of CYP1A1 (primary human hepatocytes); format: cell-based; conditions: 24 hr, scale not given, looks like -log10 of molar active concentration, 0 = no activity
Method in brief: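 Chemicals are tested in human hepatocyte primary cultures over 0.004-40 µM (5 concentrations) for 6, 24 or 48 hr, and concentration- and time-dependent transcript changes are read by quantitative nuclease protection assay.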

ERa (ESR1) = target: T2, ERa (ESR1) (Homo sapiens, UniProt P03372); assay: NCGC_ERalpha_Agonist: GAL4 BLAM Reporter gene assay: ERa; format: cell-based; conditions: agonist mode; scale not given, looks like -log10 of molar active concentration; 0 = no activity
T2 construct: expressed in transfected cells; host or cells: HEK293
Method: These assays measure binding constants and enzyme inhibition values for nuclear receptors. The targets include [drawing 67] , [drawing 68] , [drawing 69] , [drawing 70] , [drawing 71] , [drawing 72] , [drawing 73] , [drawing 74] , [drawing 75] and [drawing 76] . Each of the nuclear receptor targets was measured in agonist mode. Assays were run at the NIH Chemical Genomics Center (Rockville, MD).
Cell-based HTS Assays: These assays measuring binding constants and enzyme inhibition values for nuclear receptors. The targets include AR, ER, FXR, LXR, PPARα, PPARδ, PPARγ, RXRα, RXRβ and PXR. Each of the nuclear receptor targets was measured in both agonist and antagonist mode, but the antagonist data is still undergoing analysis due to possible interference between cytotoxicity and assay activity, so antagonist mode data were not used in the present analysis. Assays were run at the NIH Chemical Genomics Center (Rockville, MD) as part of the Tox21 collaboration. […] The R^2 was required to be ≥0.5. Values where only the highest concentration exceeded 50% activity were excluded to eliminate weak or false positives. Detailed description of the methods, data and analysis methods for this dataset will be presented in a separate publication.

PXR (NR1I2) [1] = target: T3, PXR (NR1I2) (Homo sapiens, UniProt O75469); assay: ATG_PXRE_CIS: Factorial reporter gene assay (HepG2); format: cell-based; design: endogenous in cells; host or cells: HepG2; conditions: HepG2; scale not given, looks like -log10 of molar active concentration; 0 = no activity
T3 sequence (O75469 1-434): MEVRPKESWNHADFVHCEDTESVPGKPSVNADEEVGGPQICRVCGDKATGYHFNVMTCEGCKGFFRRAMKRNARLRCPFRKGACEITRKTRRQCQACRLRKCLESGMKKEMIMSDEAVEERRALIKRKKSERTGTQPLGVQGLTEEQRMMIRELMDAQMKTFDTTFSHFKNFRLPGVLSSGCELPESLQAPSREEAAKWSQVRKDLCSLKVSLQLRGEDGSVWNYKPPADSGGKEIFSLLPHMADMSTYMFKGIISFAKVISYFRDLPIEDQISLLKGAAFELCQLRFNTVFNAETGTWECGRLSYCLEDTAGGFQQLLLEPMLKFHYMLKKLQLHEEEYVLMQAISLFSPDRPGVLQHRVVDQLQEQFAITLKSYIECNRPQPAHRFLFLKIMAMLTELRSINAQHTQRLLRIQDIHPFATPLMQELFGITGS
Method in brief: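 HepG2 cells were transfected with a multiple reporter transcription unit (MRTU) library of 48 transcription factor binding sites for the cis-acting PXRE assay. The ERRg, FXR and PPARg assays used a trans mammalian one-hybrid system with a further 25-unit nuclear receptor MRTU library. Chemicals were tested at seven concentrations, from the MTC downward in three-fold steps.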

PXR (NR1I2) [2] = target: T3, PXR (NR1I2); assay: ATG_PXR_TRANS: Factorial reporter gene assay (HepG2); format: cell-based; design: endogenous in cells; host or cells: HepG2; conditions: HepG2; scale not given, looks like -log10 of molar active concentration; 0 = no activity
Method in brief: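 Seven concentrations per chemical, three-fold dilutions down from the MTC, were tested in HepG2 hepatoma cells. Those cells carried a multiple reporter transcription unit library, read either as cis transcription-factor-site reporters or as a trans mammalian one-hybrid panel for nuclear receptors.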

T2 sequence (P03372 whole entry, the tested form may be a part): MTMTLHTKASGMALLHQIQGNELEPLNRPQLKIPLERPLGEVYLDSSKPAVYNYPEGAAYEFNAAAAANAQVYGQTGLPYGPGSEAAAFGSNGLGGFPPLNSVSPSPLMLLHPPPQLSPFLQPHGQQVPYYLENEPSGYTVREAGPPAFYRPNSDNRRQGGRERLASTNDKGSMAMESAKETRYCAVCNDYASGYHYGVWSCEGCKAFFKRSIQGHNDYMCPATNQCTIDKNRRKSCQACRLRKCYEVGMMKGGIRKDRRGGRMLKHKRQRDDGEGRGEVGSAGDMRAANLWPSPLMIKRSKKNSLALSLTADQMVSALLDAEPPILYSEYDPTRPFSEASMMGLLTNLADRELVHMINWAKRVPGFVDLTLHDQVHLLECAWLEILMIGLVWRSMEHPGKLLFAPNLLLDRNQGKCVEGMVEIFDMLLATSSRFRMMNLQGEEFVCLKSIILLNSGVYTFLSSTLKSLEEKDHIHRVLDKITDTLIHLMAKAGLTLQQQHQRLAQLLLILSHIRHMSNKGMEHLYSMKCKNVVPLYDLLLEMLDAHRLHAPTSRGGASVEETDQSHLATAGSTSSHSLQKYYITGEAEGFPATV

SMILES	NCGC_PXR_Agonist_human (PXR Human (NR1I2))	CHR_Rat_Liver_1_AnyLesion (Rat Liver)	CLZD_ABCB11_24 (ABCB11)	CLZD_CYP1A1_24 (CYP1A1)	NCGC_ERalpha_Agonist (ERa (ESR1))	ATG_PXRE_CIS (PXR (NR1I2) [1])	ATG_PXR_TRANS (PXR (NR1I2) [2])
CCCCOCN(C(=O)CCl)c1c(CC)cccc1CC [r46]	5.71	6	0	5.141	0	5.721	5.959
CCSC(=O)N(CC(C)C)CC(C)C [r49]	0	6	0	0	0	0	0
CC1=C(C(=O)Nc2ccccc2)SCCO1 [r53]	0	0	0	4.822	0	4.328	0
CCOC(=O)C(Cl)Cc1cc(-n2nc(C)n(C(F)F)c2=O)c(F)cc1Cl (centres unmarked) [r54]	0	6	0	0	0	4.328	4.367
Nc1cnn(-c2ccccc2)c(=O)c1Cl [r56]	0	0	0	0	0	0	0
CC(C)OC(=O)Nc1cccc(Cl)c1 [r59]	0	6	0	0	0	4.658	4.347
COc1nc(C)nc(NC(=O)NS(=O)(=O)c2ccccc2Cl)n1 [r62]	0	6	0	0	0	4.495	0
COc1nc(C)nc(NC(=O)NS(=O)(=O)c2ccccc2Cl)n1 [r63]	0	6	0	0	0	0	0
